Laboratory results published in the supplement of paper PMC5752671.
Counter-ions that a name gives are not always drawn.

Legend:
Test in all cases: area under dose-response curve (cell viability) (AUC (arbitrary, % viability x log concentration)); higher = less sensitive (more viable)
Details in all cases: 4 days
[1] = system: OCI-AML3
How it was run: (§1)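 The value given is the area under a fitted sigmoid dose-response curve. That sigmoid had four parameters and was fitted to duplicate-averaged data from fourteen leukemia cell lines grown on extracellular-matrix-coated 384-well plates. One day after plating, drugs were robotically dosed in duplicate at eight concentrations spanning 4–5 logs between 10^–12 and 10^–4 M, chosen per drug, and viability was read with CellTiter-Glo 4 days later.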

[2] = system: MV4.11
How it was run: as §1

[3] = system: U937
How it was run: as §1

[4] = system: MOLM/16
How it was run: as §1

[5] = system: SKM1
How it was run: as §1

[6] = system: HL60
How it was run: as §1

[7] = system: PL-21
How it was run: as §1

[8] = system: NB4
How it was run: as §1

[9] = system: MOLM/13
How it was run: as §1

[10] = system: KG1
How it was run: as §1

Row | SMILES | area under dose-response curve [1] | area under dose-response curve [2] | area under dose-response curve [3] | area under dose-response curve [4] | area under dose-response curve [5] | area under dose-response curve [6] | area under dose-response curve [7] | area under dose-response curve [8] | area under dose-response curve [9] | area under dose-response curve [10]
1 | COc1ccc2c3n(c(=NC(=O)c4cccnc4)nc2c1OC)CCN3 [PIK-90] | 532 | 580 | 586 | 515 | 540 | 512 | 522 | 612 | 624 | 626
2 | COc1cc(Nc2c(C#N)cnc3cc(OCCCN4CCN(C)CC4)c(OC)cc23)c(Cl)cc1Cl [SKI-606] | 604 | 545 | 590 | 452 | 539 | 715 | 530 | 525 | 550 | 559
3 | O=C1NC(=O)c2c1c1c3ccccc3n3c1c1c2c2ccccc2n1[C@H]1CC[C@@H]3O1 | 649 | 532 | 679 | 577 | 656 | 751 | 625 | 605 | 606 | 654
4 | CC[C@@]1(O)C(=O)OCc2c1cc1n(c2=O)Cc2cc3c(CN(C)C)c(O)ccc3nc2-1 [Topotecan HCl] | 269 | 231 | 263 | 240 | 269 | 296 | 299 | 143 | 238 | 271
5 | CO[C@H]1C[C@@H]2CC[C@@H](C)[C@@](O)(O2)C(=O)C(=O)N2CCCC[C@H]2C(=O)O[C@H]([C@H](C)C[C@@H]2CC[C@@H](OC(=O)C(C)(CO)CO)[C@H](OC)C2)CC(=O)[C@H](C)/C=C(\C)[C@@H](O)[C@@H](OC)C(=O)[C@H](C)C[C@H](C)/C=C/C=C/C=C/1C [Temsirolimus] | 557 | 385 | 302 | 399 | 436 | 592 | 435 | 588 | 445 | 455
6 | CCN(CC)CCNC(=O)c1c(C)[nH]c(/C=C2\C(=O)Nc3ccc(F)cc32)c1C [Sunitinib] | 662 | 301 | 694 | 493 | 635 | 707 | 617 | 578 | 299 | 581
7 | COc1ccc2c(c1)CCC1C2CCC2(C)C(NCCCCCCN3C(=O)C=CC3=O)CCC12 (stereo not given) | 547 | 644 | 589 | 632 | 608 | 512 | 559 | 645 | 658 | 522
8 | Cn1c(=O)n(-c2ccc(C(C)(C)C#N)cc2)c2c3cc(-c4cnc5ccccc5c4)ccc3ncc21 [BEZ-235] | 459 | 436 | 374 | 362 | 451 | 512 | 444 | 489 | 435 | 483
9 | FC(F)c1nc2ccccc2n1-c1nc(N2CCOCC2)nc(N2CCOCC2)n1 [ZSTK-474] | 584 | 603 | 541 | 515 | 563 | 599 | 533 | 619 | 609 | 623
10 | O=C(NC[C@H](O)CO)c1ccncc1Nc1ccc(I)cc1F | 150 | 432 | 536 | 402 | 194 | 276 | 325 | 355 | 520 | 373
11 | O=C(CCCCCCC(=O)Nc1ccccc1)NO [Vorinostat] | 530 | 447 | 508 | 463 | 584 | 534 | 496 | 530 | 502 | 561
12 | O=C(/C=C/c1cccc(S(=O)(=O)Nc2ccccc2)c1)NO [Belinostat] | 446 | 348 | 388 | 329 | 469 | 550 | 419 | 445 | 465 | 399
13 | CC1(C)CCC(C)(C)c2cc(NC(=O)c3ccc(C(=O)O)cc3)ccc21 [Tamibarotene] | 297 | 328 | 524 | 558 | 412 | 603 | 542 | 509 | 442 | 660
14 | CN[C@@H]1C[C@H]2O[C@@](C)([C@@H]1OC)n1c3ccccc3c3c4c(c5c6ccccc6n2c5c31)C(=O)NC4 [Staurosporine] | 388 | 121 | 344 | 291 | 273 | 525 | 265 | 304 | 162 | 379
15 | CC/C(=C(\c1ccccc1)c1ccc(OCCN(C)C)cc1)c1ccccc1 [Tamoxifen] | 601 | 629 | 613 | 598 | 636 | 664 | 582 | 588 | 584 | 634
16 | CN1CC[C@@H](NC(=O)Nc2ccc(C#N)cc2)C[C@@H]1c1nc2ccccc2[nH]1 | 588 | 584 | 608 | 587 | 624 | 632 | 563 | 607 | 583 | 666
17 | CC(C)(C)c1ccc(S(=O)(=O)/C=C/C#N)cc1 [BAY 11-7085] | 444 | 518 | 500 | 476 | 465 | 443 | 506 | 518 | 533 | 487
18 | COc1cc(F)c(F)c(Nc2ccc(I)cc2F)c1NS(=O)(=O)C1(C[C@H](O)CO)CC1 [RDEA-119] | 317 | 489 | 560 | 432 | 338 | 361 | 410 | 443 | 544 | 486

Row | SMILES | area under dose-response curve [1] | area under dose-response curve [2] | area under dose-response curve [3] | area under dose-response curve [4] | area under dose-response curve [5] | area under dose-response curve [6] | area under dose-response curve [7] | area under dose-response curve [8] | area under dose-response curve [9] | area under dose-response curve [10]
19 | Cc1ccc([N+](=O)[O-])cc1S(=O)(=O)N(C)/N=C/c1cnc2ccc(Br)cn12 [PIK-75] | 398 | 314 | 371 | 328 | 402 | 363 | 366 | 413 | 339 | 390
20 | COc1ccc(-c2cc3c(C)nc(N)nc3n([C@H]3CC[C@H](OCCO)CC3)c2=O)cn1 | 402 | 387 | 397 | 378 | 399 | 414 | 403 | 458 | 423 | 475
21 | Cn1cnc2c(F)c(Nc3ccc(Br)cc3Cl)c(C(=O)NOCCO)cc21 [AZD-6244] | 384 | 565 | 657 | 501 | 358 | 458 | 439 | 519 | 662 | 578
22 | CN(C)C1CCN(C(=O)c2ccc(NC(=O)Nc3ccc(-c4nc(N5CCOCC5)nc(N5CCOCC5)n4)cc3)cc2)CC1 [PKI-587] | 248 | 363 | 255 | 429 | 372 | 437 | 374 | 447 | 346 | 548
23 | C=CCNC1=C2C[C@@H](C)C[C@H](OC)[C@H](O)[C@@H](C)/C=C(\C)[C@H](OC(N)=O)[C@@H](OC)/C=C\C=C(/C)C(=O)NC(=CC1=O)C2=O [Tanespimycin] | 484 | 280 | 480 | 278 | 404 | 586 | 475 | 346 | 327 | 578
24 | CC1=C(/C=C/C(C)=C/C=C/C(C)=C/C(=O)O)C(C)(C)CCC1 [Tretinoin] | 333 | 338 | 452 | 574 | 410 | 506 | 523 | 601 | 449 | 577
25 | CO[C@@H]1[C@H](N(C)C(=O)c2ccccc2)C[C@H]2O[C@]1(C)n1c3ccccc3c3c4c(c5c6ccccc6n2c5c31)C(=O)NC4 [PKC412] | 560 | 279 | 454 | 425 | 555 | 643 | 524 | 505 | 310 | 455
26 | CC1(C)CCC(c2ccc(Cl)cc2)=C(CN2CCN(c3ccc(C(=O)NS(=O)(=O)c4ccc(N[C@H](CCN5CCOCC5)CSc5ccccc5)c(S(=O)(=O)C(F)(F)F)c4)cc3)CC2)C1 [ABT-263] | 643 | 526 | 620 | 540 | 626 | 496 | 630 | 642 | 542 | 528
27 | Cc1ccc(Nc2nccc(N(C)c3ccc4c(C)n(C)nc4c3)n2)cc1S(N)(=O)=O [Pazopanib] | 615 | 559 | 581 | 644 | 642 | 608 | 562 | 635 | 555 | 619
28 | Clc1ccc(Nc2nnc(Cc3ccncc3)c3ccccc23)cc1 [Vatalanib] | 694 | 666 | 688 | 673 | 653 | 712 | 614 | 623 | 683 | 700
29 | CC[C@]1(O)C[C@H]2CN(CCc3c([nH]c4ccccc34)[C@@](C(=O)OC)(c3cc4c(cc3OC)N(C=O)[C@H]3[C@@](O)(C(=O)OC)[C@H](OC(C)=O)[C@]5(CC)C=CCN6CC[C@]43[C@@H]65)C2)C1 [Vincristine sulfate] | 12.2 | 5.09 | 4.64 | 35.7 | 59.2 | 52.9 | 7.49 | 241 | 6.74 | 246
30 | Nc1nc2[nH]cc(CCc3ccc(C(=O)N[C@@H](CCC(=O)O)C(=O)O)cc3)c2c(=O)[nH]1 [Pemetrexed] | 641 | 640 | 628 | 624 | 654 | 643 | 618 | 664 | 647 | 657
31 | CC[C@H](C)C(=O)O[C@H]1C[C@H](O)C=C2C=C[C@H](C)[C@H](CC[C@@H](O)C[C@@H](O)CC(=O)O)[C@H]21 [Pravastatin] | 657 | 699 | 668 | 619 | 647 | 668 | 638 | 615 | 656 | 657
32 | CCCS(=O)(=O)Nc1ccc(F)c(C(=O)c2c[nH]c3ncc(Cl)cc23)c1F [PLX-4720] | 763 | 714 | 638 | 606 | 597 | 769 | 616 | 630 | 660 | 713
33 | NC(=O)Nc1cc(-c2cccc(F)c2)sc1C(=O)N[C@H]1CCCNC1 [AZD7762] | 415 | 29.7 | 341 | 387 | 271 | 471 | 357 | 378 | 5.84 | 405
34 | Cn1nnc2c(C(N)=O)ncn2c1=O [Temozolomide] | 686 | 670 | 668 | 622 | 674 | 671 | 611 | 638 | 624 | 656
35 | Cc1cc(C(C)Nc2ccccc2)c2nc(N3CCOCC3)cc(=O)n2c1 (stereo not given) [TGX-221] | 650 | 633 | 645 | 590 | 638 | 726 | 630 | 619 | 675 | 694
36 | Nc1ncn([C@@H]2O[C@H](CO)[C@@H](O)[C@H]2O)c(=O)n1 [Azacitidine] | 619 | 560 | 623 | 506 | 564 | 647 | 593 | 493 | 505 | 666
